In the kinase profiling compilation of Christmann-Franck et al. (2016):
Blank lines part the entries; values can stand above or below the compound they belong to.

Columns and labels:
TTK (human) [1] = target: TTK (human) (UniProt P33981); assay: SelectScreen, TR FRET
TTK (human) [2] = target: TTK (human) (UniProt P33981); assay: KINOMEscan competition binding; conditions: for kinase still bound, per cent of control: compound 10.0 µM
GAK (human) = GAK (human) (UniProt O14976); assay: KINOMEscan competition binding; conditions: compound 10.0 µM
GAK (human), sequence (O14976 whole entry, looked up): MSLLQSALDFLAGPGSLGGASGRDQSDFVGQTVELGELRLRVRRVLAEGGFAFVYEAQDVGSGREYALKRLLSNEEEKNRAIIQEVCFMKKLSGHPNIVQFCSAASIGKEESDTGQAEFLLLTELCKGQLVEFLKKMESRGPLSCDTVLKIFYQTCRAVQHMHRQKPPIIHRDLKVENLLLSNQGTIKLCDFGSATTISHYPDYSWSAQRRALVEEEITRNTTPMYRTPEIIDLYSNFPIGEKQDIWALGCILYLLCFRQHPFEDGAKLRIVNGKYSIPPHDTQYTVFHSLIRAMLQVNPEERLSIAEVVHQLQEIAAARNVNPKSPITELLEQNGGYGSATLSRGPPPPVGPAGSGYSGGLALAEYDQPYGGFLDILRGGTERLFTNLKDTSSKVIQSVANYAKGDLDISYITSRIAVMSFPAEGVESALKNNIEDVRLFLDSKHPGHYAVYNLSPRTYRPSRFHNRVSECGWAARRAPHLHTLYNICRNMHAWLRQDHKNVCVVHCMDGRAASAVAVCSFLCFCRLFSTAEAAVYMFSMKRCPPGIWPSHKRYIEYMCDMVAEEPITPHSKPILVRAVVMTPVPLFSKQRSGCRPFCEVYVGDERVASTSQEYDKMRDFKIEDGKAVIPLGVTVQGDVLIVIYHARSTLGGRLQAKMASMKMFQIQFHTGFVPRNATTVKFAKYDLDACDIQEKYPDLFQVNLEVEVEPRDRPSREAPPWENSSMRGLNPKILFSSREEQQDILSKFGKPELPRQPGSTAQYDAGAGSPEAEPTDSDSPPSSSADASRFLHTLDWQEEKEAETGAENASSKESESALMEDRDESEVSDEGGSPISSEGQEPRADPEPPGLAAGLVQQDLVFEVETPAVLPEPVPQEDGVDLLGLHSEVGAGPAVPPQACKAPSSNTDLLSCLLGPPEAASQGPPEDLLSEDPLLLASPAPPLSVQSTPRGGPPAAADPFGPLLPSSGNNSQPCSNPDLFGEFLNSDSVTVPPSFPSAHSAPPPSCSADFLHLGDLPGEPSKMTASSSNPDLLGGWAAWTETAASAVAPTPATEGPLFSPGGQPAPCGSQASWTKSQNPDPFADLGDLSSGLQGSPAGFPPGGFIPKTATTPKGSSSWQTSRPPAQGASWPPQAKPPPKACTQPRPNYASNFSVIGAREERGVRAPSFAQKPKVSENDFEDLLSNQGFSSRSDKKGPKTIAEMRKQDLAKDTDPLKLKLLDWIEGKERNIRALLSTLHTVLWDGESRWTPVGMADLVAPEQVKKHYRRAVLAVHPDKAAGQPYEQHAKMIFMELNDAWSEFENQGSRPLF

PLK1 (human) = PLK1 (human) (UniProt P53350); assay: KINOMEscan competition binding; conditions: compound 10.0 µM
PLK1 (human), sequence (P53350 whole entry, looked up): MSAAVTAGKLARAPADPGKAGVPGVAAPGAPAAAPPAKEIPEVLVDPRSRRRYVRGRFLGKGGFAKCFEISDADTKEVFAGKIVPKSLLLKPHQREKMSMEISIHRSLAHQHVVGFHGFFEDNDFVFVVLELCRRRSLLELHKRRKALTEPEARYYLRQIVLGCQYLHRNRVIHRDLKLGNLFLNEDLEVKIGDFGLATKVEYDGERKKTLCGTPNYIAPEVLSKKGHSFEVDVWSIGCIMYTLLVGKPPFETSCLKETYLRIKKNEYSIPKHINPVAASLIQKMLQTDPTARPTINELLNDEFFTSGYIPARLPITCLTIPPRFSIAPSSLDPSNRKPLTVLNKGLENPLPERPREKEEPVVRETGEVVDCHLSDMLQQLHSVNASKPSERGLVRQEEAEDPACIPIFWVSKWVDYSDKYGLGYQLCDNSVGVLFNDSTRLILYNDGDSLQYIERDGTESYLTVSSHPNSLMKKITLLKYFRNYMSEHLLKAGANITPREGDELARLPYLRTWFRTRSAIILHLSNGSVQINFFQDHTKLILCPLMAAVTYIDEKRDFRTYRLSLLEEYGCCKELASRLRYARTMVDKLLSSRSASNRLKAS

EPHA8 (human) = EPHA8 (human) (UniProt P29322); assay: KINOMEscan competition binding; conditions: compound 10.0 µM
SIK1 (human) = SIK1 (human) (UniProt P57059); assay: KINOMEscan competition binding; conditions: compound 10.0 µM
ULK2 (human) = ULK2 (human) (UniProt Q8IYT8); assay: KINOMEscan competition binding; conditions: compound 10.0 µM
FES (human) = FES (human) (UniProt P07332); assay: KINOMEscan competition binding; conditions: compound 10.0 µM
CHEK1 (human) = CHEK1 (human) (UniProt O14757); assay: KINOMEscan competition binding; conditions: compound 10.0 µM
[3] = test system: ABL1 (human), P00519 [F317L]; assay: KINOMEscan competition binding; conditions: compound 10.0 µM
ABL1 (human), P00519 [F317L], sequence (P00519 whole entry F317L, looked up): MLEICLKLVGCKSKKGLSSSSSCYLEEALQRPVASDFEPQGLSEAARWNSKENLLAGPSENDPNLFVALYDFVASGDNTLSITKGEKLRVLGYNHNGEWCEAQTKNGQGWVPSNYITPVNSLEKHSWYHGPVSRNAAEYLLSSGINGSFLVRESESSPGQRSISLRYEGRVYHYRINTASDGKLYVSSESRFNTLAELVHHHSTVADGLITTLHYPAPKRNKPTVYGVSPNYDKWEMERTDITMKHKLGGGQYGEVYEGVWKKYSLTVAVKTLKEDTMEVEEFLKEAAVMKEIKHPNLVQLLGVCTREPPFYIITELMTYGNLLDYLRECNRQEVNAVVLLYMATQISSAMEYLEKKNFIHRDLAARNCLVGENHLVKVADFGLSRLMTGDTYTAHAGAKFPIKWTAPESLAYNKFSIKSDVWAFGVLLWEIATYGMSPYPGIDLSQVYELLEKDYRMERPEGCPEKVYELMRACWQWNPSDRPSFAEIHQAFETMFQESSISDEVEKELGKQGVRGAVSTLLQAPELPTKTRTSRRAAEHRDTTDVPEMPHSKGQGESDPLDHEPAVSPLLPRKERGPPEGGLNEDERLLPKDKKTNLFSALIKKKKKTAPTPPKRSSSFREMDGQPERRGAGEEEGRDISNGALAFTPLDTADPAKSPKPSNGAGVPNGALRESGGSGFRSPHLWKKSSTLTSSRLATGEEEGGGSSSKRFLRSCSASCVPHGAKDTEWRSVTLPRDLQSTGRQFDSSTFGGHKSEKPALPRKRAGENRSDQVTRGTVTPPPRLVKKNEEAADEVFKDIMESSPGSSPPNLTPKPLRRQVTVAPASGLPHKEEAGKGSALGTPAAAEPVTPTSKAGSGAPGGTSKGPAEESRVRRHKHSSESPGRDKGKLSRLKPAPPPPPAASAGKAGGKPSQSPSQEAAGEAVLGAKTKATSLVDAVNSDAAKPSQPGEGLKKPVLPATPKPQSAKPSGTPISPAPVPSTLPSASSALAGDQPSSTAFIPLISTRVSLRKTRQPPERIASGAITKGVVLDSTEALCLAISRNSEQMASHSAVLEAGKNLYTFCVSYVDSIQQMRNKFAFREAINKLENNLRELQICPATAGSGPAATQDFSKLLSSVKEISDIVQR

FRK (human) = FRK (human) (UniProt P42685); assay: KINOMEscan competition binding; conditions: compound 10.0 µM
[4] = target: TYK2 JH2 pseudokinase (human) (UniProt P29597); assay: KINOMEscan competition binding; conditions: compound 10.0 µM
RPS6KA6 KD2 (human) = RPS6KA6 KD2 (human) (UniProt Q9UK32); assay: KINOMEscan competition binding; conditions: compound 10.0 µM
SLK (human) = SLK (human) (UniProt Q9H2G2); assay: KINOMEscan competition binding; conditions: compound 10.0 µM
MERTK (human) = MERTK (human) (UniProt Q12866); assay: KINOMEscan competition binding; conditions: compound 10.0 µM
DCLK3 (human) = DCLK3 (human) (UniProt Q9C098); assay: KINOMEscan competition binding; conditions: compound 10.0 µM
TNK2 (human) = TNK2 (human) (UniProt Q07912); assay: KINOMEscan competition binding; conditions: compound 10.0 µM
NEK9 (human) = NEK9 (human) (UniProt Q8TD19); assay: KINOMEscan competition binding; conditions: compound 10.0 µM
PTK2 (human) = PTK2 (human) (UniProt Q05397); assay: KINOMEscan competition binding; conditions: compound 10.0 µM
NEK5 (human) = NEK5 (human) (UniProt Q6P3R8); assay: KINOMEscan competition binding; conditions: compound 10.0 µM
DAPK3 (human) = DAPK3 (human) (UniProt O43293); assay: KINOMEscan competition binding; conditions: compound 10.0 µM
BMP2K (human) = BMP2K (human) (UniProt Q9NSY1); assay: KINOMEscan competition binding; conditions: compound 10.0 µM
BMP2K (human), sequence (Q9NSY1 whole entry, looked up): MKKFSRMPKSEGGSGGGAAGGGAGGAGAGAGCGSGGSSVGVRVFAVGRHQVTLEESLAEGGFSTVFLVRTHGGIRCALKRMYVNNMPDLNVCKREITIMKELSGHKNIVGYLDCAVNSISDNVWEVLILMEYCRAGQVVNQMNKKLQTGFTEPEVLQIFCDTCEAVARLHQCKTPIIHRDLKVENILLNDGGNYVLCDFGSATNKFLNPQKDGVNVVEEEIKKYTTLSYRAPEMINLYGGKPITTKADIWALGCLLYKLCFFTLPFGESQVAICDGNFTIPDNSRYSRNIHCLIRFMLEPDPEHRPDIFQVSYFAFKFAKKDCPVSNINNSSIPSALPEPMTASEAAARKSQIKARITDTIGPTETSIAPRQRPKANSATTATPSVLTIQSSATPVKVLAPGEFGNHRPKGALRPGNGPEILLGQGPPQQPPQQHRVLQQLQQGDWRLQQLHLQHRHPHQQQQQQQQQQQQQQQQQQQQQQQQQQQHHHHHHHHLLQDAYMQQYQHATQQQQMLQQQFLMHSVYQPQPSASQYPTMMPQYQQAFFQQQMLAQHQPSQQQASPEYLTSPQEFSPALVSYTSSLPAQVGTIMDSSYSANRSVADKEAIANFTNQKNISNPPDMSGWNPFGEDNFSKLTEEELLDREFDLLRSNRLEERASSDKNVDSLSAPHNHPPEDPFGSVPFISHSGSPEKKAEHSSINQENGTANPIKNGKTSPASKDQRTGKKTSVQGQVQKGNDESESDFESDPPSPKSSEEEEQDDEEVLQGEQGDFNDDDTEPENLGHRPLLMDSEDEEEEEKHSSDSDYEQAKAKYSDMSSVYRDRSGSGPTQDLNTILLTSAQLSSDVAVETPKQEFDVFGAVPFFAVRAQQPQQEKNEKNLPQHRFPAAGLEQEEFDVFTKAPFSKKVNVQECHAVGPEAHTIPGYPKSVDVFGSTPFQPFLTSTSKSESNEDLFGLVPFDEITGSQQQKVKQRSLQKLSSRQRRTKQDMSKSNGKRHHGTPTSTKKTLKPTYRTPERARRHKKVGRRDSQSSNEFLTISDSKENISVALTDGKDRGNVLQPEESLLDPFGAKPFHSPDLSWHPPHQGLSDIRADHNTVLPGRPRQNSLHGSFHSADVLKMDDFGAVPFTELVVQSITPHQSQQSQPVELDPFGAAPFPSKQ

RIOK1 (human) = RIOK1 (human) (UniProt Q9BRS2); assay: KINOMEscan competition binding; conditions: compound 10.0 µM
RPS6KA1 KD2 (human) = RPS6KA1 KD2 (human) (UniProt Q15418); assay: KINOMEscan competition binding; conditions: compound 10.0 µM
SIK2 (human) = SIK2 (human) (UniProt Q9H0K1); assay: KINOMEscan competition binding; conditions: compound 10.0 µM
STK10 (human) = STK10 (human) (UniProt O94804); assay: KINOMEscan competition binding; conditions: compound 10.0 µM
[5] = test system: FLT3 (human), P36888 [D835H]; assay: KINOMEscan competition binding; conditions: compound 10.0 µM
ULK1 (human) = ULK1 (human) (UniProt O75385); assay: KINOMEscan competition binding; conditions: compound 10.0 µM
FER (human) = FER (human) (UniProt P16591); assay: KINOMEscan competition binding; conditions: compound 10.0 µM
[6] = test system: ABL1 (human), P00519 [F317I]; assay: KINOMEscan competition binding; conditions: compound 10.0 µM
ABL1 (human), P00519 [F317I], sequence (P00519 whole entry F317I, looked up): as the sequence (P00519 whole entry F317L, looked up) above, with L317I counted along it

PTK2B (human) = PTK2B (human) (UniProt Q14289); assay: KINOMEscan competition binding; conditions: compound 10.0 µM
PLK3 (human) = PLK3 (human) (UniProt Q9H4B4); assay: KINOMEscan competition binding; conditions: compound 10.0 µM
PIP4K2B (human) = PIP4K2B (human) (UniProt P78356); assay: KINOMEscan competition binding; conditions: compound 10.0 µM
[7] = test system: EGFR (human), P00533 [A750P; 747-749 del]; assay: KINOMEscan competition binding; conditions: compound 10.0 µM
[8] = test system: FLT3 (human), P36888 [D835Y]; assay: KINOMEscan competition binding; conditions: compound 10.0 µM
CAMKK2 (human) = CAMKK2 (human) (UniProt Q96RR4); assay: KINOMEscan competition binding; conditions: compound 10.0 µM
STK33 (human) = STK33 (human) (UniProt Q9BYT3); assay: KINOMEscan competition binding; conditions: compound 10.0 µM

TTK (human), sequence (P33981 whole entry, looked up): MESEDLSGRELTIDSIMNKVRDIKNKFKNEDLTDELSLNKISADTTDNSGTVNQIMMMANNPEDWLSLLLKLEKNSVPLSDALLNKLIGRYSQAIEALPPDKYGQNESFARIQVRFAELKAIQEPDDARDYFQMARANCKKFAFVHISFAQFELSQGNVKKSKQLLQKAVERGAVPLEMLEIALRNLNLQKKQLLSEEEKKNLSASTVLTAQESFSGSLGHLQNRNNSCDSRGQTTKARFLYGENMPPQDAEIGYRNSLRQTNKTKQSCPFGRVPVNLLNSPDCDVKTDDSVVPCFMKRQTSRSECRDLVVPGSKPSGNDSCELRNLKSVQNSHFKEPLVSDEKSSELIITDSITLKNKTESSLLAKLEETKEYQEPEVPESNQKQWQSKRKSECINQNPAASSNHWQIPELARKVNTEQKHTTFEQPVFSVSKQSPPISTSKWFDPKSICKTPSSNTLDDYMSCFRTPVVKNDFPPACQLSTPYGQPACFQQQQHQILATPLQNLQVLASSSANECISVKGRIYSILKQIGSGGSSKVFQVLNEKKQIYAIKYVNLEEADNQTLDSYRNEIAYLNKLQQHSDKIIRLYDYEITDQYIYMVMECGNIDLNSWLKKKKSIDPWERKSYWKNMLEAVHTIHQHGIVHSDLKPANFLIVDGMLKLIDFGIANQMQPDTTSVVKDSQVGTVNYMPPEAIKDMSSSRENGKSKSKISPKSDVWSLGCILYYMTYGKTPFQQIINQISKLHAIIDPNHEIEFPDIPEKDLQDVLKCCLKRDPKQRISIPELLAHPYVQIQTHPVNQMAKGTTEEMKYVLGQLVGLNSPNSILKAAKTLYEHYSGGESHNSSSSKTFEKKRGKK

IC50 (TTK (human) [1]): 605 nM | Kd (TTK (human) [2]): 113 nM | kinase still bound, per cent of control (TTK (human) [2]): 2.4% | kinase still bound, per cent of control (GAK (human)): 29% | kinase still bound, per cent of control (PLK1 (human)): 14% | kinase still bound, per cent of control (EPHA8 (human)): 0%
Structure (SMILES): CC(C)Oc1cc(N2CCC(O)CC2)ccc1Nc1ncc2c(n1)N(C1CCCC1)CCC(=O)N2C

kinase still bound, per cent of control (SIK1 (human)): 14% | kinase still bound, per cent of control (ULK2 (human)): 1.2% | kinase still bound, per cent of control (FES (human)): 26% | kinase still bound, per cent of control (CHEK1 (human)): 14% | kinase still bound, per cent of control [3]: 30% | kinase still bound, per cent of control (FRK (human)): 7% | kinase still bound, per cent of control [4]: 32% | kinase still bound, per cent of control (RPS6KA6 KD2 (human)): 4.7% | kinase still bound, per cent of control (SLK (human)): 3.2% | kinase still bound, per cent of control (MERTK (human)): 23% | kinase still bound, per cent of control (TTK (human) [2]): 14% | kinase still bound, per cent of control (DCLK3 (human)): 4% | kinase still bound, per cent of control (TNK2 (human)): 7.4% | kinase still bound, per cent of control (PTK2 (human)): 1.9% | kinase still bound, per cent of control (NEK5 (human)): 30% | kinase still bound, per cent of control (GAK (human)): 1% | kinase still bound, per cent of control (PLK1 (human)): 2.1% | kinase still bound, per cent of control (DAPK3 (human)): 13% | kinase still bound, per cent of control (BMP2K (human)): 19% | kinase still bound, per cent of control (RIOK1 (human)): 32% | kinase still bound, per cent of control (RPS6KA1 KD2 (human)): 22% | kinase still bound, per cent of control (SIK2 (human)): 26% | kinase still bound, per cent of control (STK10 (human)): 10% | kinase still bound, per cent of control [5]: 30% | kinase still bound, per cent of control (ULK1 (human)): 7.8% | kinase still bound, per cent of control (FER (human)): 21% | kinase still bound, per cent of control [6]: 29% | kinase still bound, per cent of control (PTK2B (human)): 13% | kinase still bound, per cent of control (PLK3 (human)): 11% | kinase still bound, per cent of control (PIP4K2B (human)): 31% | kinase still bound, per cent of control [7]: 33% | kinase still bound, per cent of control [8]: 26% | kinase still bound, per cent of control (CAMKK2 (human)): 31% | kinase still bound, per cent of control (STK33 (human)): 18%
Structure (SMILES): COc1cc(N2CCN(C)CC2)ccc1Nc1ncc2c(n1)N(C1CCCC1)C(C)CC(=O)N2 (stereo unspecified)
kinase still bound, per cent of control (NEK9 (human)): 27%
